According to PMC9100884, “Semi-Synthesis of N-Aryl Amide Analogs of Piperine from Piper nigrum and Evaluation of Their Antitrypanosomal, Antimalarial, and Anti-SARS-CoV-2 Main Protease Activities” (Molecules, 2022):
Like-named read-outs stand apart in the source and are kept apart here.

Columns and labels:
[1] = system: T. brucei rhodesiense (STB900); assay: In vitro antitrypanosomal assay (resazurin); format: cell-based, Trypanosoma brucei rhodesiense; conditions: for IC50: Trypanosoma brucei, RHODESIENSE, read-out: IC50 ± S.E.M. Antitrypanosomal against T. brucei rhodesiense
Description: T. brucei rhodesiense (STB900) was maintained continuously in MEM/EBSS medium (pH 7.3) supplemented with 3 g/L sodium bicarbonate, 4.5 g/L glucose, 25 mM HEPES, 0.05 mM bathocuproinedisulfonic disodium salt, 1.5 mM L-cysteine, 1 mM hypoxanthine, 0.16 mM thymidine, 1 mM sodium pyruvate, 0.2 mM 2-mercaptoethanol, 1% MEM non-essential amino acid, and 15% v/v heated ([…]) FBS in a 5% CO2 incubator [47]. To evaluate the antitrypanosomal activity, trypanosome cells were seeded at 2 × 10^4 cells/well in 175 µL culture media/well and incubated with 25 µL of varying concentrations of each test compound in a 96-well plate under the culture conditions. […] Following 72 h incubation, 20 μL of resazurin was added to each well. The reaction was further incubated at 37 °C under 5% CO2 for 3 h to allow for the irreversible reduction of resazurin (violet color) to resorufin (pink color) by viable trypanosome cells. Fluorescence signals were measured by a spectrofluorometer using a 530-nm excitation wavelength and a 585-nm emission wavelength. […] The result for each compound was normalized using the control media for the overall background subtraction (0%), and untreated T. brucei rhodesiense with 0.1% DMSO was used as the 100% control.

3D7 P. falciparum = assay: In vitro antimalarial assay (SYBR Green I); format: cell-based; conditions: Plasmodium falciparum, read-out: IC50 ± S.E.M. Antimalarial against 3D7 P. falciparum
Vero cells = assay: Cytotoxicity against Vero cells (sulforhodamine B assay); format: cell-based, African green monkey; conditions: for EC50: Chlorocebus sabaeus, 72 h, read-out: EC50 ± S.E.M. Vero; for cytotoxicity against Vero cells (in words): at the concentration of 100 μM
Description: Cytotoxicity test of selected analogues was performed against the African green monkey kidney fibroblast (Vero cells) obtained from Bioassay laboratory, BIOTEC, NSTDA, Thailand. The cells of less than 20 passages were maintained continuously in a MEM/EBSS medium supplemented with 10% heated fetal bovine serum (GE Healthcare, PAA Laboratories GmbH, Pasching, Aurstria), 2.2 g/L sodium bicarbonate (Emsure, ACS, Reag. Ph Eur, Darmstadt, Germany), and 1% sodium pyruvate (Sigma). Cytotoxicity was determined by sulforhodamine B assay. Briefly, 1.9 × 10^4 Vero cells were incubated with each compound at final concentrations of 0.0001–100 µM at 37 °C under 5% CO2. After incubation for 72 h, the cells were fixed with 10% trichloroacetic acid (Sigma) at 4 °C for 45 min, washed gently with tap-water and air-dried at room temperature for overnight. Then, the fixed protein was stained with 0.057% w/v of sulforhodamine B (Sigma). The excess dye was washed repeatedly with 1% v/v of acetic acid. The plates were allowed to air-dry at room temperature for overnight. Finally, the protein-bound dye in each well was dissolved with 50 µL of 10× Tris-based solution. The optical density (OD) was measured by a microplate reader at wavelength 510 nm. The EC50 value of each compound was determined from the dose-response curve. Data were shown as mean and standard error of the mean (S.E.M.) of three biological independent experiments.

Vero E6 cell lines = assay: Cytotoxicity against Vero E6 cells (CellTiter 96 AQueous One); format: cell-based; conditions: for EC50: Chlorocebus sabaeus, read-out: EC50 ± S.E.M. Vero E6
Description: The cytotoxicity of the active compound was tested with Vero E6 cell lines. Each cell line was seeded at 1 × 10^4 cells per well into 96-well plates in growth medium and incubated overnight. The compounds were prepared at the concentrations of 2–500 µM in DMSO and added to the cells at the DMSO final concentrations of 0.1%. Cells were incubated for 48 h before analyzing the cell viability using CellTiter 96® AQueous One Solution Cell Proliferation Assay kit (Promega, Madison, WI, USA) according to the manufacturer’s protocol. The plate was read at the A450 by VICTORTM X3 microplate reader (PerkinElmer, Waltham, MA, USA). The EC50 values of the cells were calculated from nonlinear regression analysis. The results were reported as means and standard error of mean (S.E.M.) from three biological independent experiments.

[2] = cytotoxicity, Vero cells, sulforhodamine B, 0.0001–100 µM
[3] = Vero C1008, cytotoxicity, Vero E6 cells, 48 h, 2–500 µM

Compound | IC50 ([1]; 72 h incubation, resazurin) [µM] | IC50 (3D7 P. falciparum; 3D7 strain, 48 h, SYBR Green I) [µM] | EC50 (Vero cells; [2]) [µM] | cytotoxicity against Vero cells (in words) (Vero cells) | EC50 (Vero E6 cell lines; [3]) [µM] | IC50 (3D7 P. falciparum; 3D7, 48 h) [µM] | EC50 (Vero cells; Vero) [µM] | IC50 ([1]; 72 h) [µM] | activity against T. brucei rhodesiense (in words) ([1]; at 100 μM) | EC50 (Vero E6 cell lines; Vero C1008, 48 h) [µM] | cytotoxicity against Vero E6 cell lines (in words) (Vero E6 cell lines; at the concentration of 500 μM)
N=C(N)c1ccc(OCCCCCOc2ccc(C(=N)N)cc2)cc1 [Pentamidine, reference compound] | 0.016 ± 0.002 |  |  |  |  |  |  |  |  |  | 
O=C(/C=C/C=C/c1ccc2c(c1)OCO2)N1CCCCC1 [Piperine (1), Piperine] | 56.7 ± 0.98 | 61.2 ± 2.83 | > 100 | non-toxic | 132 ± 2.91 |  |  |  |  |  | 
O=C(O)/C=C/C=C/c1ccc2c(c1)OCO2 [Piperic acid (2), Piperic acid] |  |  |  | non-toxic |  | 63.5 ± 2.43 | > 100 | > 100 | inactive | > 500 | non-toxic
COc1ccc(NC(=O)/C=C/C=C/c2ccc3c(c2)OCO3)c(OC)c1 [Compound 4, (2E,4E)-5-(benzo[d][1,3]dioxol-5-yl)-N-(2,4-dimethoxyphenyl)penta-2,4-dienamide] | 19.9 ± 2.28 | 29.4 ± 3.54 | > 100 |  | > 500 |  |  |  |  |  | 
O=C(/C=C/C=C/c1ccc2c(c1)OCO2)Nc1ccccc1 [Compound 3, (2E,4E)-5-(benzo[d][1,3]dioxol-5-yl)-N-phenylpenta-2,4-dienamide] | 53.5 ± 1.77 | 25.8 ± 1.56 | > 100 |  | > 500 |  |  |  |  |  | 
COc1ccc(OC)c(NC(=O)/C=C/C=C/c2ccc3c(c2)OCO3)c1 [Compound 5, (2E,4E)-5-(benzo[d][1,3]dioxol-5-yl)-N-(2,5-dimethoxyphenyl)penta-2,4-dienamide] | 15.5 ± 3.09 | 24.6 ± 1.91 | > 100 | no cytotoxicity | > 500 |  |  |  |  |  | 
